Calls of active or inactive are those of the source.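 How the source made its calls: active means IC50 for lowering Her2 protein in breast cancer cells at or below a set limit; inactive means IC50 above that limit.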
Tested on: SKBr3 Her2 cytoblot, chemiluminescence, 24 h
Assay: Her2 protein loss in SKBr3 cells, dose response, mechanism study for Hsp90 inhibitor project, cell-based, cytoblot, chemiluminescence (AID 754)

COc1ccc2c(c1-c1cc(NS(=O)(=O)c3cccc([N+](=O)[O-])c3)ccc1N)OCO2
IC50 (top dose 60 µM): > 60 µM (inactive)

COc1ccc(S(=O)(=O)Nc2ccc(O)c(-c3ccccc3O)c2)cc1OC
IC50 (top dose 60 µM): > 60 µM (inactive)

CCOc1ccc2ccccc2c1-c1cc(NS(=O)(=O)c2cc(Cl)ccc2Cl)ccc1N
IC50 (top dose 60 µM): > 60 µM (inactive)

Nc1cc(N)c2cccnc2c1O
IC50 (top dose 10 µM): > 10 µM (inactive)

CCN(CC)CCCC(C)Nc1cc(O)cc2cccnc12 (stereo not given)
IC50 (top dose 10 µM): > 10 µM (inactive)

Nc1ccc(NS(=O)(=O)c2ccccc2)c(O)c1
IC50 (top dose 60 µM): > 60 µM (inactive)

CCc1cc(-c2[nH]ncc2-c2ccc3c(c2)OCO3)c(O)cc1O
IC50 (top dose 30 µM): > 30 µM (inactive)

N#Cc1cc(S(=O)(=O)Nc2ccc(F)c(-c3c(O)ccc4c3OCO4)c2)ccc1F
IC50 (top dose 50 µM): > 50 µM (inactive)

O=S(=O)(Nc1cc(O)cc2cccnc12)c1ccc(F)cc1
IC50 (top dose 60 µM): > 60 µM (inactive)

CCN(CC)CCCNc1cc(OC)c(Nc2ccccc2)c2cccnc12
IC50 (top dose 10 µM): > 10 µM (inactive)

CCn1nc(-c2cccs2)nc2c(=O)n(C)c(=O)nc1-2
IC50 (top dose 30 µM): < 1.88 µM

Nc1cccc(S(=O)(=O)Nc2ccc(O)c(-c3ccccc3O)c2)c1
IC50 (top dose 60 µM): > 60 µM (inactive)

COc1ccc(Oc2c(OC)cc(NCCCCCNC(C)C)c3ncccc23)cc1
IC50 (top dose 50 µM): > 50 µM (inactive)

Cn1ncnc2c(=O)n(C)c(=O)nc1-2
IC50 (top dose 30 µM): < 1.88 µM

COc1cc(NCCCC(C)N)c2nccc(Cl)c2c1 (stereo not given)
IC50 (top dose 50 µM): > 50 µM (inactive)

COc1cc(NC(C)CCCNC(C)C)c2ncccc2c1 (stereo not given)
IC50 (top dose 50 µM): > 50 µM (inactive)

COc1cc(C2CC(c3ccccc3O)=NN2)ccc1O (stereo not given)
IC50 (top dose 60 µM): 51 µM (inactive)

CCOc1ccc2ccccc2c1-c1cc(NS(=O)(=O)c2cc(Cl)ccc2Cl)ccc1NC(=O)OC(C)(C)C
IC50 (top dose 60 µM): > 60 µM (inactive)

N#Cc1c(N2CCCC2)nc(N)c2c(N)nc(N3CCCC3)cc12
IC50 (top dose 30 µM): > 30 µM (inactive)

CCC(C)NCCNc1cc(OC)cc2cccnc12 (stereo not given)
IC50 (top dose 10 µM): > 10 µM (inactive)

O=C1c2ccccc2-c2onc3ccc(NCCCn4ccnc4)c1c23
IC50 (top dose 30 µM): > 30 µM (inactive)

Cc1ccc(S(=O)(=O)Nc2ccc(N)c(-c3ccccc3O)c2)cc1
IC50 (top dose 60 µM): > 60 µM (inactive)

Oc1ccc(-c2nc(-c3ccc(O)c(O)c3)cs2)cc1
IC50 (top dose 30 µM): > 30 µM (inactive)

Cc1ccc(S(=O)(=O)Nc2ccc(F)c(-c3c(O)ccc4c3OCO4)c2)cc1
IC50 (top dose 50 µM): > 50 µM (inactive)

Nc1cc2ccccc2c(O)c1O
IC50 (top dose 10 µM): > 10 µM (inactive)

COc1cccc2c1C(=O)c1c(O)c3c(c(O)c1C2=O)C[C@@](O)(C(C)=O)C[C@@H]3O[C@H]1C[C@H](N)[C@H](O)[C@H](C)O1
IC50 (top dose 30 µM): 29.3 µM

CCn1c(CSc2nnc3ccccn23)nc2cc(C(=O)O)ccc21
IC50 (top dose 30 µM): > 30 µM (inactive)

COc1cc(NCCN(CC(C)C)CC(C)C)c2ncccc2c1
IC50 (top dose 50 µM): > 50 µM (inactive)

Cc1ccc(S(=O)(=O)Nc2ccc(O)c(-c3ccccc3O)c2)cc1
IC50 (top dose 60 µM): > 60 µM (inactive)

COc1cc(N)c2ncccc2c1
IC50 (top dose 50 µM): > 50 µM (inactive)

COc1ccc(C2CC(c3ccccc3O)=NN2)cc1OC (stereo not given)
IC50 (top dose 60 µM): 52.3 µM (inactive)

COc1cc(NS(=O)(=O)c2ccc([N+](=O)[O-])cc2[N+](=O)[O-])c2ncccc2c1
IC50 (top dose 50 µM): > 50 µM (inactive)

CCOc1ccc2ccccc2c1-c1cc(NS(=O)(=O)c2ccc(OC)c(OC)c2)ccc1N
IC50 (top dose 60 µM): > 60 µM (inactive)

Cc1[nH]c2c(N)cccc2c1C
IC50 (top dose 50 µM): > 50 µM (inactive)

CCCC(C)N(CC)CCNc1cc(OC)cc2cccnc12 (stereo not given)
IC50 (top dose 50 µM): > 50 µM (inactive)

O=S(=O)(Nc1ccc(O)c(-c2ccccc2O)c1)c1cc(Cl)ccc1Cl
IC50 (top dose 60 µM): > 60 µM (inactive)

CCC(CC)NCCCNc1cc(OC)cc2cccnc12
IC50 (top dose 50 µM): > 50 µM (inactive)

Nc1ccc(O)c2ncccc12
IC50 (top dose 10 µM): > 10 µM (inactive)
IC50 (top dose 50 µM): > 50 µM (inactive)

Nc1cccc2cc(O)ccc12
IC50 (top dose 50 µM): > 50 µM (inactive)

COc1cc(NC(C)CCCN)c2ncccc2c1 (stereo not given)
IC50 (top dose 50 µM): > 50 µM (inactive)

COc1ccc2c(c1-c1cc(NS(=O)(=O)c3cccc(N)c3)ccc1N)OCO2
IC50 (top dose 60 µM): > 60 µM (inactive)

COc1ccc(S(=O)(=O)Nc2ccc(N)c(-c3ccccc3O)c2)cc1OC
IC50 (top dose 60 µM): > 60 µM (inactive)

CCN(CC)CCCNc1cc(OC)cc2ccc(OC)nc12
IC50 (top dose 50 µM): > 50 µM (inactive)

CCn1c(CSc2nnc(-c3cccnc3)n2-c2ccccc2C)nc2cc(C(=O)O)ccc21
IC50 (top dose 30 µM): 3.14 µM

Nc1cccc(S(=O)(=O)Nc2ccc(N)c(-c3ccccc3O)c2)c1
IC50 (top dose 60 µM): > 60 µM (inactive)

Nc1cc2c(c(O)c1O)C(=O)c1ccccc1C2=O
IC50 (top dose 10 µM): > 10 µM (inactive)

O=[N+]([O-])c1cccc(S(=O)(=O)Nc2ccc(O)c(-c3ccccc3O)c2)c1
IC50 (top dose 60 µM): > 60 µM (inactive)

Cc1c(-c2nn(C)c(=O)c3ccccc23)oc2ccc(F)cc2c1=O
IC50 (top dose 30 µM): > 30 µM (inactive)

NCCCCCNc1cc(O)cc2cccnc12
IC50 (top dose 10 µM): > 10 µM (inactive)

COc1ccc2c(c1-c1cc(NS(=O)(=O)c3cc(Cl)ccc3Cl)ccc1N)OCO2
IC50 (top dose 60 µM): > 60 µM (inactive)

CC(Cc1ccc(O)c(O)c1)C(C)Cc1ccc(O)c(O)c1 (stereo not given)
IC50 (top dose 30 µM): > 30 µM (inactive)

Nc1ccc(Nc2nc3ccccc3s2)c(O)c1
IC50 (top dose 50 µM): > 50 µM (inactive)

CCn1nc(-c2ccccc2)nc2c(=O)n(C)c(=O)nc1-2
IC50 (top dose 30 µM): 2.73 µM

COc1cc(NCC(O)CN(CC(C)C)CC(C)C)c2nc(C)ccc2c1 (stereo not given)
IC50 (top dose 50 µM): > 50 µM (inactive)

CCOc1ccc2ccccc2c1-c1cc(NS(=O)(=O)c2ccc(C)cc2)ccc1N
IC50 (top dose 60 µM): > 60 µM (inactive)

O=[N+]([O-])c1ccc(NS(=O)(=O)c2ccccc2)c(O)c1
IC50 (top dose 60 µM): > 60 µM (inactive)

O=[N+]([O-])c1cc(S(=O)(=O)Nc2ccc(F)c(-c3c(O)ccc4c3OCO4)c2)ccc1Cl
IC50 (top dose 50 µM): > 50 µM (inactive)

COc1ccc(NS(=O)(=O)c2ccccc2)c(OC)c1
IC50 (top dose 60 µM): > 60 µM (inactive)

CC(C)NCCCC(C)Nc1cc(O)cc2cccnc12 (stereo not given)
IC50 (top dose 10 µM): > 10 µM (inactive)

COc1ccc2c(c1-c1cc(NS(=O)(=O)c3ccc(C)cc3)ccc1N)OCO2
IC50 (top dose 60 µM): > 60 µM (inactive)

O=S(=O)(Nc1ccc(Cl)cc1O)c1ccccc1
IC50 (top dose 60 µM): > 60 µM (inactive)

Nc1ccc(NS(=O)(=O)c2cc(Cl)ccc2Cl)cc1-c1ccccc1O
IC50 (top dose 60 µM): > 60 µM (inactive)

Nc1ccc(NS(=O)(=O)c2ccccc2N)cc1-c1ccccc1O
IC50 (top dose 60 µM): > 60 µM (inactive)

Nc1cc(O)cc2cccnc12
IC50 (top dose 10 µM): < 0.625 µM

CC(CCN(C)C)Nc1cc(O)cc2cccnc12 (stereo not given)
IC50 (top dose 10 µM): > 10 µM (inactive)

Nc1ccc(NS(=O)(=O)c2cccc([N+](=O)[O-])c2)cc1-c1ccccc1O
IC50 (top dose 60 µM): > 60 µM (inactive)

Nc1ccc(NS(=O)(=O)c2ccccc2[N+](=O)[O-])cc1-c1ccccc1O
IC50 (top dose 60 µM): > 60 µM (inactive)

COc1cc(NC(C)CCCNC(C)C)c2ncccc2c1OC (stereo not given)
IC50 (top dose 50 µM): > 50 µM (inactive)

CC(C)(C)OC(=O)Nc1cccc(NS(=O)(=O)c2cc(Cl)ccc2Cl)c1-c1ccccc1O
IC50 (top dose 60 µM): 48.2 µM (inactive)

COc1cc(NCCCN(CC(C)C)CC(C)C)c2ncccc2c1Cl
IC50 (top dose 50 µM): > 50 µM (inactive)

NCc1cc(S(=O)(=O)Nc2cc(O)cc3cccnc23)ccc1F
IC50 (top dose 60 µM): 16.1 µM

C[C@H]1CCCC(=O)CCCCCc2cc(O)cc(O)c2C(=O)O1
IC50 (top dose 30 µM): > 30 µM (inactive)

CC(C)NCCCCCNc1cc(O)cc2cccnc12
IC50 (top dose 10 µM): > 10 µM (inactive)

CCN(CC)CC(O)c1ccnc2c(O)cccc12 (stereo not given)
IC50 (top dose 50 µM): > 50 µM (inactive)

N#Cc1cc(S(=O)(=O)Nc2cc(O)cc3cccnc23)ccc1F
IC50 (top dose 60 µM): 33.8 µM (inactive)

COc1cccc2c1C(=O)c1c(O)c3c(c(O)c1C2=O)C[C@@](O)(C(=O)CO)C[C@@H]3O[C@H]1C[C@H](N)[C@H](O)[C@H](C)O1
IC50 (top dose 30 µM): > 30 µM (inactive)

C[C@H]1CCC[C@H](O)CCCCCc2cc(O)cc(O)c2C(=O)O1
IC50 (top dose 30 µM): 27.9 µM

COc1cc(NCCCCN)c2ncccc2c1
IC50 (top dose 50 µM): > 50 µM (inactive)

O=[N+]([O-])c1cc(O)cc2cccnc12
IC50 (top dose 10 µM): > 10 µM (inactive)

From PubChem BioAssay AID754 (Emory University Molecular Libraries Screening Center, 2007)
